Results reported in the CheMixHub viscosity set.

Experiment: xn = mol fraction of the nth substance listed

CCCCCCCCCO + COC(=O)OC
Details	viscosity [mPa·s]
293.15 K, 101 kPa, x1 = 0.008	0.63
293.15 K, 101 kPa, x2 = 0.06435	9.044
293.15 K, 101 kPa, x2 = 0.1251	7.282
293.15 K, 101 kPa, x2 = 0.2318	5.067
293.15 K, 101 kPa, x2 = 0.322	3.834
293.15 K, 101 kPa, x2 = 0.4095	2.962
293.15 K, 101 kPa, x2 = 0.4994	2.281
293.15 K, 101 kPa, x2 = 0.6032	1.706
293.15 K, 101 kPa, x2 = 0.699	1.3
293.15 K, 101 kPa, x2 = 0.7961	0.991
293.15 K, 101 kPa, x2 = 0.8901	0.776
303.15 K, 100 kPa, x2 = 0.1	5.632
303.15 K, 100 kPa, x2 = 0.1999	4.161
303.15 K, 100 kPa, x2 = 0.3	3.081
303.15 K, 100 kPa, x2 = 0.4	2.342
303.15 K, 100 kPa, x2 = 0.5	1.81
303.15 K, 100 kPa, x2 = 0.6	1.384
303.15 K, 100 kPa, x2 = 0.7	1.06
303.15 K, 100 kPa, x2 = 0.8	0.831
303.15 K, 100 kPa, x2 = 0.9	0.658
303.15 K, 101 kPa, x1 = 0.00584	0.55
303.15 K, 101 kPa, x2 = 0.04989	6.721
303.15 K, 101 kPa, x2 = 0.1183	5.358
303.15 K, 101 kPa, x2 = 0.2164	3.942
303.15 K, 101 kPa, x2 = 0.3115	2.991
303.15 K, 101 kPa, x2 = 0.4106	2.28
303.15 K, 101 kPa, x2 = 0.4935	1.832
303.15 K, 101 kPa, x2 = 0.6036	1.368
303.15 K, 101 kPa, x2 = 0.7016	1.059
303.15 K, 101 kPa, x2 = 0.7951	0.835
303.15 K, 101 kPa, x2 = 0.8982	0.657
308.15 K, 100 kPa, x2 = 0.1	4.801
308.15 K, 100 kPa, x2 = 0.1999	3.592
308.15 K, 100 kPa, x2 = 0.3	2.702
308.15 K, 100 kPa, x2 = 0.4	2.074
308.15 K, 100 kPa, x2 = 0.5	1.627
308.15 K, 100 kPa, x2 = 0.6	1.253
308.15 K, 100 kPa, x2 = 0.7	0.972
308.15 K, 100 kPa, x2 = 0.8	0.769
308.15 K, 100 kPa, x2 = 0.9	0.617
313.15 K, 100 kPa, x2 = 0.1	4.133
313.15 K, 100 kPa, x2 = 0.1999	3.123
313.15 K, 100 kPa, x2 = 0.3	2.398
313.15 K, 100 kPa, x2 = 0.4	1.848
313.15 K, 100 kPa, x2 = 0.5	1.467
313.15 K, 100 kPa, x2 = 0.6	1.141
313.15 K, 100 kPa, x2 = 0.7	0.893
313.15 K, 100 kPa, x2 = 0.8	0.713
313.15 K, 100 kPa, x2 = 0.9	0.579
313.15 K, 101 kPa, x1 = 0.00538	0.492
313.15 K, 101 kPa, x2 = 0.06799	4.566
313.15 K, 101 kPa, x2 = 0.1245	3.835
313.15 K, 101 kPa, x2 = 0.2254	2.876
313.15 K, 101 kPa, x2 = 0.2945	2.39
313.15 K, 101 kPa, x2 = 0.433	1.677
313.15 K, 101 kPa, x2 = 0.5255	1.342
313.15 K, 101 kPa, x2 = 0.6009	1.118
313.15 K, 101 kPa, x2 = 0.6997	0.882
313.15 K, 101 kPa, x2 = 0.8024	0.702
313.15 K, 101 kPa, x2 = 0.9014	0.571
318.15 K, 100 kPa, x2 = 0.1	3.586
318.15 K, 100 kPa, x2 = 0.1999	2.735
318.15 K, 100 kPa, x2 = 0.3	2.137
318.15 K, 100 kPa, x2 = 0.4	1.662
318.15 K, 100 kPa, x2 = 0.5	1.317
318.15 K, 100 kPa, x2 = 0.6	1.04
318.15 K, 100 kPa, x2 = 0.7	0.823
318.15 K, 100 kPa, x2 = 0.8	0.665
318.15 K, 100 kPa, x2 = 0.9	0.545
323.15 K, 100 kPa, x2 = 0.1	3.119
323.15 K, 100 kPa, x2 = 0.1999	2.397
323.15 K, 100 kPa, x2 = 0.3	1.888
323.15 K, 100 kPa, x2 = 0.4	1.494
323.15 K, 100 kPa, x2 = 0.5	1.199
323.15 K, 100 kPa, x2 = 0.6	0.951
323.15 K, 100 kPa, x2 = 0.7	0.763
323.15 K, 100 kPa, x2 = 0.8	0.621
323.15 K, 100 kPa, x2 = 0.9	0.514

CCCCCC[n+]1ccn(C)c1.O=[N+]([O-])[O-] + CCC(C)O
Details	viscosity [mPa·s]
298.15 K, 100 kPa, x1 = 0.7392	237.5

CCCCCCCCCO + CCC(C)=O
viscosity [mPa·s], 100 kPa
Details	x2 = 0.0834	x2 = 0.1589	x2 = 0.2407	x2 = 0.3508	x2 = 0.4403	x2 = 0.5589	x2 = 0.6502	x2 = 0.7393	x2 = 0.8501	x2 = 0.9393
293.15 K	8.68	6.91	5.59	4.29	3.39	2.38	1.83	1.33	0.78	0.56
303.15 K	6.38	5.06	3.89	2.91	2.25	1.52	0.98	0.76	0.53	0.46
313.15 K	4.39	3.52	2.8	2.07	1.61	1.21	0.98	0.78	0.55	0.42
323.15 K	3.27	2.67	2.14	1.56	1.25	0.92	0.72	0.59	0.47	0.38

O=[N+]([O-])c1ccccc1O + c1ccncc1
viscosity [mPa·s], 101 kPa
Details	x1 = 0.06767	x1 = 0.1295	x1 = 0.178	x1 = 0.2717	x1 = 0.3836	x1 = 0.4628	x1 = 0.5508	x1 = 0.6529	x1 = 0.7913	x1 = 0.8557
303.15 K	0.943	1.081	1.211	1.5	1.881	2.15	2.45	2.755	3.145	3.331
313.15 K	0.815	0.93	1.03	1.245	1.51	1.711	1.912	2.145	2.411	2.525

CC(=O)N(C)C + CCCCCO
viscosity [mPa·s], 100 kPa
Details	298.15 K	313.15 K
x1 = 0.0569	3.02	2.057
x1 = 0.1068	2.69	1.887
x1 = 0.2009	2.246	1.634
x1 = 0.3051	1.92	1.419
x1 = 0.4017	1.68	1.283
x1 = 0.4989	1.498	1.159
x1 = 0.6011	1.358	1.065
x1 = 0.7029	1.223	0.973
x1 = 0.7966	1.121	0.895
x1 = 0.8962	1.041	0.833
x1 = 0.9519	0.981	0.8

CC(=O)N(C)C + OCCO
308.15 K, 101 kPa
Details	viscosity [mPa·s]
x2 = 0.1632	1.166
x2 = 0.2752	1.388
x2 = 0.4068	1.611
x2 = 0.5162	2.416
x2 = 0.6269	3.622
x2 = 0.7125	4.662
x2 = 0.7974	5.882
x2 = 0.8652	7.289
x2 = 0.9339	8.916

CCCCCCCCCO + CCCCCCCO
viscosity [mPa·s], 101.8 kPa
Details	x2 = 0.1184	x2 = 0.3815	x2 = 0.5514	x2 = 0.7089	x2 = 0.9183
298.15 K	9.014	7.935	7.47	6.84	6.013
308.15 K	6.366	5.68	5.353	4.96	4.408
318.15 K	4.618	4.157	3.932	3.662	3.286

CC(N)=O + CCO
303.15 K, 101 kPa
Details	viscosity [mPa·s]
x1 = 0.0327	9.42
x1 = 0.0646	10
x1 = 0.0901	10.16
x1 = 0.1011	12.61
